Measured values from ChEMBL document CHEMBL4000172, “Identification of a novel 5-amino-3-(5-cyclopropylisoxazol-3-yl)-1-isopropyl-1H-pyrazole-4-carboxamide as a specific RET kinase inhibitor” (Eur J Med Chem, 2017).

Columns and labels:
[1] = Stability in mouse liver microsomes assessed as compound remaining at 1 uM after 15 mins; format: ADME, microsome; conditions: read-out: Stability
[2] = molecular target: T1, Proto-oncogene tyrosine-protein kinase receptor Ret (Homo sapiens, UniProt P07949); experiment: Inhibition of human RET using KKKSPGEYVNIEFG as peptide substrate in presence of [gamma33P]ATP by radiometric assay
[3] = Cytotoxicity against human Nthy-ori 3-1 cells assessed as reduction in cell viability by CellTiter-Glo luminescence assay; format: cell-based
[4] = Cytotoxicity against mouse BA/F3 cells assessed as reduction in cell viability by CellTiter-Glo luminescence assay; format: cell-based, BaF3
[5] = Induction of apoptosis in human Nthy-ori 3-1 cells assessed as increase in cleaved PARP level at 5 uM after 48 hrs by Western blot method; format: cell-based; conditions: nthy-ori 3-1, 48 h
[6] = molecular target: T1, Proto-oncogene tyrosine-protein kinase receptor Ret
Description: Inhibition of RET (unknown origin) transfected in mouse Ba/F3 cells assessed as reduction in cell viability by CellTiter-Glo luminescence assay

[7] = test system: Proto-oncogene tyrosine-protein kinase receptor Ret (Homo sapiens), P07949 [V804M]
Description: Inhibition of RET V804M mutant (unknown origin) transfected in mouse Ba/F3 cells assessed as reduction in cell viability by CellTiter-Glo luminescence assay

[8] = test system: Proto-oncogene tyrosine-protein kinase receptor Ret (Homo sapiens), P07949 [C634W]
Description: Inhibition of RET C634W mutant in human TT cells assessed as reduction in cell viability by CellTiter-Glo luminescence assay

[9] = molecular target: Proto-oncogene tyrosine-protein kinase receptor Ret (Homo sapiens, UniProt P07949, V804M); experiment: Inhibition of human RET V804M mutant using peptide substrate KKKVSRSGLYRSPS MPENLNRPR in presence of [gamma33P]ATP by radiometric assay
[10] = Stability in human liver microsomes assessed as compound remaining at 1 uM after 15 mins; format: ADME, microsome; conditions: read-out: Stability
[11] = Stability in rat liver microsomes assessed as compound remaining at 1 uM after 15 mins; format: ADME, microsome; conditions: read-out: Stability
[12] = Stability in rat liver microsomes assessed as compound remaining at 1 uM after 30 mins; format: ADME, microsome; conditions: read-out: Stability
[13] = Stability in human liver microsomes assessed as compound remaining at 1 uM after 30 mins; format: ADME, microsome; conditions: read-out: Stability
[14] = Induction of apoptosis in human Nthy-ori 3-1 cells assessed as increase in cleaved PARP level at 5 to 20 uM after 48 hrs by Western blot method; format: cell-based; conditions: nthy-ori 3-1, 48 h

Chain of Proto-oncogene tyrosine-protein kinase receptor Ret (Homo sapiens), P07949 [C634W] (P07949 whole entry C634W): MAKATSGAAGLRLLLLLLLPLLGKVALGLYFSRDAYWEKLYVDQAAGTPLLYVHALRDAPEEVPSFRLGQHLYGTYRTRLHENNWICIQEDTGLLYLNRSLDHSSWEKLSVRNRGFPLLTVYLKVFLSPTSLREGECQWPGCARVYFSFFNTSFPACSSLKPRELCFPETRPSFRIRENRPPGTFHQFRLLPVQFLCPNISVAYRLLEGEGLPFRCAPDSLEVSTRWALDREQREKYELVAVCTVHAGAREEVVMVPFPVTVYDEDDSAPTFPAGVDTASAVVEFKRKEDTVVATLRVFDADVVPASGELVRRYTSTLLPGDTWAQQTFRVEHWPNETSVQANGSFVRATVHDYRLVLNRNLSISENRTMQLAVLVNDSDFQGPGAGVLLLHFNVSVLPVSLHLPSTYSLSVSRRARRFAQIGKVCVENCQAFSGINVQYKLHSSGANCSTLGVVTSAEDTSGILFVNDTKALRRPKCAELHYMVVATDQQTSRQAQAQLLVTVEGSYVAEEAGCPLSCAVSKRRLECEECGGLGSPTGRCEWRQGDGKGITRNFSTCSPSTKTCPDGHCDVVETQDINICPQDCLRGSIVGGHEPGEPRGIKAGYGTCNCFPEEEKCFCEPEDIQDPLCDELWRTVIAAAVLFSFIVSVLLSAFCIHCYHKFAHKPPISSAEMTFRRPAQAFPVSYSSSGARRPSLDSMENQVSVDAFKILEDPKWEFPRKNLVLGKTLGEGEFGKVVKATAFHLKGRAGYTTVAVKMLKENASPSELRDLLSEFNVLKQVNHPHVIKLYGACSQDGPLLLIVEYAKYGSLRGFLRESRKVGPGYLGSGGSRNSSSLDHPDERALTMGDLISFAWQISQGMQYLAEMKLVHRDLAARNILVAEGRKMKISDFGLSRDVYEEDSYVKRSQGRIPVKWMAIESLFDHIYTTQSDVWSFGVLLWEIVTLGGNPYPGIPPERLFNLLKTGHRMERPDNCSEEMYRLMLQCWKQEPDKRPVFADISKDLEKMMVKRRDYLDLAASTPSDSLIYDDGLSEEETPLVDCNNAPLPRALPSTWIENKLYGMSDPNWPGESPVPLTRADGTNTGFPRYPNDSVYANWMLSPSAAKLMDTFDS
Chain of Proto-oncogene tyrosine-protein kinase receptor Ret (Homo sapiens), P07949 [V804M] (P07949 whole entry V804M): as the sequence (P07949 whole entry C634W) above, with W634C, V804M counted along it
T1 sequence (P07949 whole entry): as the sequence (P07949 whole entry C634W) above, with W634C counted along it
Chain of Proto-oncogene tyrosine-protein kinase receptor Ret (Homo sapiens, UniProt P07949, V804M) (P07949 29-1114 V804M limits assumed): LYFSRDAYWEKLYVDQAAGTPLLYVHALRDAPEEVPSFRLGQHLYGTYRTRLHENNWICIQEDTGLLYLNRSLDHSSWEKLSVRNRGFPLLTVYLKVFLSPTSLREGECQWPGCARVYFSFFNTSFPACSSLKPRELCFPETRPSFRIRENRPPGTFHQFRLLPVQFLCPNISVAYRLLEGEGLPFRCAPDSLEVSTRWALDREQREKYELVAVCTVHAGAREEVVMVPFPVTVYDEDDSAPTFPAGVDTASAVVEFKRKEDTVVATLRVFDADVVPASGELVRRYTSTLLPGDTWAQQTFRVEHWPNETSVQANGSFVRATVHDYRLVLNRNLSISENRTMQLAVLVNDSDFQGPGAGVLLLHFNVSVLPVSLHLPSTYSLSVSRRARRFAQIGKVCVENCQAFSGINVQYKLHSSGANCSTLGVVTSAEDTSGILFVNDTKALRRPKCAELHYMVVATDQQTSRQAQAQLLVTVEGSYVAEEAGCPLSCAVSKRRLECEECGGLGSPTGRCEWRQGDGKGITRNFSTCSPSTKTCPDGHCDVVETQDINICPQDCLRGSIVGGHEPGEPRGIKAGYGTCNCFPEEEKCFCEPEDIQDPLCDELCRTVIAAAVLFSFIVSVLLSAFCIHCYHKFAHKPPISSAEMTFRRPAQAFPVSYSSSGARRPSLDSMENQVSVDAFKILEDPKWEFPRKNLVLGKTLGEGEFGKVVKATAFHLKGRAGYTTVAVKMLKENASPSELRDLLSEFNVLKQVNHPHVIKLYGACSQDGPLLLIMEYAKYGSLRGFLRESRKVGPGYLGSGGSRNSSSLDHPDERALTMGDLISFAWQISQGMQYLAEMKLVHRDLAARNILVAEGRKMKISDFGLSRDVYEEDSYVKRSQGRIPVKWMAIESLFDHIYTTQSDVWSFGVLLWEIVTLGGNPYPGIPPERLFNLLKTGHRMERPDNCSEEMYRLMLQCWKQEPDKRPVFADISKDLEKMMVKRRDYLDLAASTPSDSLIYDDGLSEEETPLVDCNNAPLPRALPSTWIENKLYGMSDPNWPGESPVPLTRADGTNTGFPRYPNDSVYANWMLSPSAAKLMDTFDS

`CC(C)n1nc(-c2cc(Cc3ccccc3)on2)c(C(N)=O)c1N` gave a remaining at 0.25 h, 1 µM [1] of 54.6% and an IC50 [2] of 1640 nM.
With `CC(C)n1nc(-c2cc(-c3ccccn3)on2)c(C(N)=O)c1N` the remaining at 0.25 h, 1 µM [1] was 49% and the IC50 [2] was 4800 nM.
In the case of `Nc1ncnc2[nH]nc(-c3cc(C4CC4)on3)c12`, the remaining at 0.25 h, 1 µM [1] is reported as 1.4%.
`CCc1cc(-c2nn(C(C)C)c(N)c2C(N)=O)no1` gave a remaining at 0.25 h, 1 µM [1] of 15.1% and an IC50 [2] of 631 nM.
For `COc1cc2nccc(Oc3ccc(NC(=O)C4(C(=O)Nc5ccc(F)cc5)CC4)cc3)c2cc1OC` [CABOZANTINIB], the GI50 [3] was 2920 nM, the GI50 [4] was over 10000 nM and the Activity [5] was “Toxic”. The GI50 [6] was 70 nM, the GI50 [7] was 740 nM and the GI50 [8] was 260 nM.
In the case of `CC(C)n1nc(-c2cc(-c3ccsc3)on2)c(C(N)=O)c1N`, the remaining at 0.25 h, 1 µM [1] is reported as 11.8%, the IC50 [2] is reported as 162 nM and the IC50 [9] is reported as 2900 nM. For the same compound, the GI50 [3] was over 10000 nM, the GI50 [4] was over 10000 nM and the GI50 [6] was over 10000 nM. For the same compound, the GI50 [7] was over 10000 nM and the GI50 [8] was over 10000 nM.
Work on `CC(C)n1nc(-c2cc(-c3ccc(F)cc3)on2)c(C(N)=O)c1N` yielded a remaining at 0.25 h, 1 µM [1] of 85.2% and an IC50 [2] of 416 nM.
Work on `CC(C)n1nc(-c2cc(-c3ccccc3)on2)c(C(N)=O)c1N` yielded a remaining at 0.25 h, 1 µM [1] of 60.8% and an IC50 [2] of 236 nM.
With `CC(C)n1nc(-c2cc(C3CC3)on2)c(C(N)=O)c1N` the remaining at 0.25 h, 1 µM [1] was 62.5%, the IC50 [2] was 44 nM and the IC50 [9] was 252 nM. For the same compound, the remaining at 0.25 h, 1 µM [10] was 73%, the remaining at 0.25 h, 1 µM [11] was 70% and the remaining at 0.5 h, 1 µM [12] was 69%. For the same compound, the remaining at 0.5 h, 1 µM [13] was 45.1%, the GI50 [3] was over 10000 nM and the GI50 [4] was over 10000 nM. For the same compound, the Activity [14] was “Non-Toxic”, the GI50 [6] was 870 nM and the GI50 [7] was 6980 nM. It also gave a GI50 [8] of 1660 nM.
For `Cc1ccc(-c2cc(-c3nn(C(C)C)c(N)c3C(N)=O)no2)cc1`, the remaining at 0.25 h, 1 µM [1] was 61.8% and the IC50 [2] was 1660 nM.
In the case of `CC(C)n1nc(-c2cc(-c3cccnc3)on2)c(C(N)=O)c1N`, the remaining at 0.25 h, 1 µM [1] is reported as 86.7% and the IC50 [2] is reported as 3390 nM.
`CC(C)c1cc(-c2nn(C(C)C)c3ncnc(N)c23)no1` showed a remaining at 0.25 h, 1 µM [1] of 5.1%, a remaining at 0.25 h, 1 µM [10] of 29% and a remaining at 0.25 h, 1 µM [11] of 3.8%. It also gave a remaining at 0.5 h, 1 µM [12] of 4.1% and a remaining at 0.5 h, 1 µM [13] of 4.6%.
For `CC(C)n1nc(-c2cc(C(C)(C)C)on2)c(C(N)=O)c1N`, the remaining at 0.25 h, 1 µM [1] was 78% and the IC50 [2] was 2220 nM.
In the case of `CC(C)n1nc(-c2coc(C3CC3)n2)c2c(N)ncnc21`, the remaining at 0.25 h, 1 µM [1] is reported as 2.8% and the IC50 [2] is reported as 139 nM.
`CC(C)n1nc(-c2cc(-c3cccs3)on2)c(C(N)=O)c1N` showed a remaining at 0.25 h, 1 µM [1] of 32.1%, an IC50 [2] of 78 nM and an IC50 [9] of 1220 nM. The GI50 [3] was over 10000 nM, the GI50 [4] was over 10000 nM and the GI50 [6] was over 10000 nM. The GI50 [7] was over 10000 nM and the GI50 [8] was over 10000 nM.
For `CC(C)n1nc(-c2cc(C3CCCCC3)on2)c(C(N)=O)c1N`, the remaining at 0.25 h, 1 µM [1] was 40.6% and the IC50 [2] was 2700 nM.
Compound `CC(C)c1cc(-c2nn(C(C)C)c(N)c2C(N)=O)no1` has a remaining at 0.25 h, 1 µM [1] of 51.6% and an IC50 [2] of 1260 nM.
Work on `CC(C)n1nc(-c2ccon2)c2c(N)ncnc21` yielded a remaining at 0.25 h, 1 µM [1] of 2.6%.
